For data set [1], the system named is CYP1A1 mRNA levels in HT26. Description: CYP1A1 Gene Expression Assay, mouse CRC cell line HT26. In kind it is cell-based. The conditions noted are these: for IC50: Mus musculus; for Mouse CYP1A1 % eff: efficacy given with the IC50. How it is done:
Human and mouse colorectal cancer (CRC) cell lines, HT29 and HT26 respectively, American Type Culture Collection (ATCC) are plated in a sterile tissue culture treated 96-well plate (ThermoFisher) at 8.0×10^5 cells per well, and grown overnight at 37° C., 5% CO2 in DMEM complete (Gibco) in order to achieve confluence. After the incubation medium is aspirated off the cell monolayers, tissues are then washed with 200 μL of warmed PBS solution, and subsequently 190 μL of pre-warmed growth medium is added to each well. AhR antagonist of interest are diluted at a 20×concentration in growth medium containing 2% DMSO, and 10 μL of compound solutions are added to respective wells in triplicate. After 1 hr, AHR activating ligand, such as TCDD, kynurenine, ITE (2-(1H-indole-3-ylcarbonyl)-4-thiazolecarboxylic methyl ester), VAF347, BNF (beta-naphthoflavone), FICZ (6-formylindolo(3,2-b) carbazole or other AHR ligands, is added with or without AHR antagonist for 24 hours, after which media will be removed and stored at −80 C for later cytokine analysis. At the end of the incubation, medium is aspirated off the CRC cells, and the cells washed with 100 μL of cold PBS solution. RNA is extracted via the TaqMan™ Gene Expression Cells-to-CT™ Kit (ThermoFisher) according to the manufacturer's protocol. The QuantStudio 6 Flex (Applied Biosciences) is used to analyze mRNA levels of CYP1A1 using GAPDH as the endogenous control. TaqMan™ probe sets for both genes are acquired from ThermoFisher. Samples are run in triplicate and data is analyzed using the QuantStudio software and reported as linear and log 2(ΔΔCT) values. Statistical analysis is performed using a two-tailed t-test comparing CYP1A1 levels in the presence of each individual compound to the vehicle negative control. […] This assay can be used to confirm the inhibitory effect of the compounds prior to testing using an in vivo model.

Data set [2] is described as follows: Plasma Protein Binding, dog. In kind it is in vitro ADME. The conditions noted are these: read-out: Plasma Protein Binding PPB (d) % (converted). How it is done:
(§1) Example 10: Plasma Protein Binding Determination with Ultracentrifugation Method
(§2) The frozen plasma (stored at −80° C.) was thawed in a 37° C. water bath, followed by centrifugation at 3,220 g for 10 minutes to remove clots. The supernatant was removed into a new tube as the spun plasma. The spun plasma was pre-warmed in a 37° C. water bath for 10 minutes. The stock solutions of test compounds were diluted to 200 μM in DMSO, and then spiked into the plasma. Duplicate samples were prepared. The final concentration of compound was 1.0 μM. The final concentration of organic solvent was 0.5%. Warfarin was used as positive control in the assay. 1.0 mL of the spiked plasma was transferred to a new balance ultracentrifuge tube. Samples were incubated at 37° C., 5% CO2 for 30 minutes. After incubation, the balance ultracentrifuge tubes were centrifuged at 600,000 g for 5.5 hours at 37° C. […]
(§3) Data Analysis: All calculations were carried out using Microsoft Excel. The concentrations of test compound in plasma samples and post-ultracentrifugation plasma was determined from peak areas. The percentages of test compound bound was calculated as follows: […]

The nature of data set [3]: Suspension Monkey heps ClInt. The conditions noted are these: @1 and 0.1 mM. In kind it is in vitro ADME. The text has this: Compound Nos. 9 and 46 have the following in vitro DMPK profiles.
In data set [4] the test system is CYP. Nature of the data set: CYP Inhibition (in vitro DMPK profile, Table 52). The data set is classed as in vitro ADME. How it is done: Example 11: CYP Inhibition Assay
Stock solutions of test compounds were prepared in DMSO at the concentrations of 10 mM. Stock solution was diluted to 2 mM with acetonitrile. The final concentration of test compounds was 10 μM. For the stock solution preparation, if the positive control could not be well dissolved in the mixture of DMSO and acetonitrile (1:4) at the highest concentration, another mixture of acetonitrile and DMSO, the mixture of acetonitrile and H2O or DMSO will be used to dissolve the compound.
Data Analysis: The automatic peak integration areas are checked for all the samples. The Analyte Peak Area and Internal Standard Peak Area are exported into excel spreadsheet. The inhibition of each P450 enzyme in human liver microsomes is measured as the percentage decrease in the activity of marker metabolite formation compared to non-inhibited controls (=100% activity).

The nature of data set [5]: Plasma Protein Binding, monkey. In kind it is in vitro ADME. The conditions noted are these: read-out: Plasma Protein Binding PPB (mon) % (converted). How it is done:
as §1, §2, §3

The values that follow come from patent US20230295152A1 (SENDA BIOSCIENCES, INC., priority 2019, published 2023).

Some results are limits rather than exact numbers.

A word on the IC50: it is the midpoint of a concentration-inhibition curve. Take `CC(C)(O)Cn1cnc2c(-c3cccnc3)nc(-c3ccc(C(F)(F)F)nc3)cc2c1=O` [Compound 9]: in data set [1], 2.7 nM corresponded to half-maximal inhibition (IC50) and the “Mouse CYP1A1 % eff” value is listed as about 55%. In addition, the fraction unbound at 5.5 h, 1 μM in data set [2] is 0.124. The “Suspension Monkey heps ClInt (% Qh)” value in data set [3] was <24 (@1 and % Qh. The “CYP Inhibition” value in data set [4] is “Negative”. Moreover, in data set [5], the fraction unbound at 5.5 h, 1 μM is 0.149.
On to `C[C@H](n1cnc2c(-c3cnn(C)c3)nc(-c3ccc(Cl)cc3)cc2c1=O)C(C)(C)O` [Compound 30], for which, in data set [1], the 50% inhibitory concentration (IC50) was found to be 2.9 nM and the “Mouse CYP1A1 % eff” value is recorded as about 56%.
`C[C@@H](CO)n1cnc2c(-c3cccnc3)nc(-c3ccc(C(F)(F)F)cn3)cc2c1=O` [Compound 46, (S)-3-(1-hydroxypropan-2-yl)-8-(pyridin-3-yl)-6-(5-(trifluoromethyl)pyridin-2-yl)pyrido[3,4-d]pyrimidin-4(3H)-one] registered a concentration for half-maximal inhibition (IC50) in data set [1] of 18.5 nM. Besides, the “Mouse CYP1A1 % eff” value in data set [1] was about 96%. In addition, the values for the fraction unbound at 5.5 h, 1 μM in data set [2] and in data set [5] were 0.11 and 0.113, respectively. The “Suspension Monkey heps ClInt (% Qh)” value in data set [3] was <24 (@1 and % Qh. In addition, the “CYP Inhibition” value in data set [4] was “Negative”.
